In patent US7908091B2, “Methods of predicting and monitoring tyrosine kinase inhibitor therapy” (Prometheus Laboratories Inc., priority 2006, dated 2011):
Read-outs that look alike come from different tables or passages of the source.

Legend:
advanced kidney cancer = conditions: after a 12-week treatment period, compared to the placebo group; cited from earlier work
[1] = human, in vivo; cited from earlier work
[2] = system: hormone refractory prostate cancer; conditions: in vivo; cited from earlier work
[3] = system: refractory ovarian cancer; conditions: in vivo; cited from earlier work
[4] = system: advanced stage III or IV non-small cell lung cancer; conditions: progressive disease after standard chemotherapies; cited from earlier work
[5] = system: EGF-dependent cell proliferation; conditions: cited from earlier work
DU145 = test: gefitinib sensitivity (IC50) of cancer cell line
SkBr3 = test: gefitinib sensitivity (IC50) of cancer cell line
A431 = test: gefitinib sensitivity (IC50) of cancer cell line
SkOv3 = test: gefitinib sensitivity (IC50) of cancer cell line
MDA-MB-453 = test: gefitinib sensitivity (IC50) of cancer cell line
BT474 = test: gefitinib sensitivity (IC50) of cancer cell line
Akt = conditions: gefitinib concentration of 10 μM, data from FIG. 3 of Moasser et al., cited from earlier work
[6] = system: non-small cell lung cancer; conditions: patients with refractory non-small cell lung cancer in whom standard therapy failed; cited from earlier work
MDA-MB-361 = test: gefitinib sensitivity (IC50) of cancer cell line
[7] = system: refractory acute myeloid leukemia; conditions: twice weekly administration; cited from earlier work
[8] = system: prostate cancer, renal cell carcinoma, or multiple myeloma; conditions: in vivo; cited from earlier work
renal cell carcinoma = conditions: human, in vivo; cited from earlier work

## CNC(=O)c1cc(Oc2ccc(NC(=O)Nc3ccc(Cl)c(C(F)(F)F)c3)cc2)ccn1 [sorafenib]
Advanced kidney cancer
  patients whose disease did not progress: statistically higher percentage of patients whose disease did not progress
[1]
  most common / toxic side-effects: skin reactions such as hand-foot syndrome and rash, diarrhea, fatigue, weight loss, and hypertension

## Cc1oncc1C(=O)Nc1ccc(C(F)(F)F)cc1 [leflunomide]
[1]
  most common / toxic side-effects: asthenia, nausea, anorexia, and anemia
[2]
  patients with a decrease in prostate specific antigen of greater than 50%: about 7%
  patients with partial responses: less than 5%

## C=CC(=O)Nc1cc2c(Nc3ccc(F)c(Cl)c3)ncnc2cc1OCCCN1CCOCC1 [canertinib]
[3]
  antitumor activity: minimal antitumor activity

## C#Cc1cccc(Nc2ncnc3cc(OCCOC)c(OCCOC)cc23)c1 [erlotinib]
[4]
  median survival: 8.4 months
  response rate: 12%
[5]
  inhibits EGF-dependent cell proliferation: nanomolar concentrations
[1]
  most common / toxic side-effects: an acneiform skin rash and diarrhea

## COc1cc2ncnc(Nc3ccc(F)c(Cl)c3)c2cc1OCCCN1CCOCC1 [gefitinib]
DU145
  CATAG (gefitinib-sensitive): 1 (An IC50 <9 μM was considered gefitinib-sensitive (“CATAG” = 1))
SkBr3
  CATAG (gefitinib-sensitive): 1 (An IC50 <9 μM was considered gefitinib-sensitive (“CATAG” = 1))
A431
  CATAG (gefitinib-sensitive): 1 (An IC50 <9 μM was considered gefitinib-sensitive (“CATAG” = 1))
SkOv3
  CATAG (gefitinib-sensitive): 1 (An IC50 <9 μM was considered gefitinib-sensitive (“CATAG” = 1))
MDA-MB-453
  CATAG (gefitinib-sensitive): 1 (An IC50 <9 μM was considered gefitinib-sensitive (“CATAG” = 1))
BT474
  CATAG (gefitinib-sensitive): 1 (An IC50 <9 μM was considered gefitinib-sensitive (“CATAG” = 1))
Akt; A431
  Akt (level of Akt activity): 2
Akt; A549
  Akt (level of Akt activity): 85
Akt; BT474
  Akt (level of Akt activity): 10
Akt; Colo205
  Akt (level of Akt activity): 105
Akt; DU145
  Akt (level of Akt activity): 35
Akt; DU4475
  Akt (level of Akt activity): 105
Akt; MCF-7
  Akt (level of Akt activity): 70
Akt; MDA-MB-361
  Akt (level of Akt activity): 20
Akt; MDA-MB-453
  Akt (level of Akt activity): 40
Akt; MDA-MB-468
  Akt (level of Akt activity): 90
Akt; MDA-MIB-231
  Akt (level of Akt activity): 70
Akt; PC3
  Akt (level of Akt activity): 55
Akt; SkBr3
  Akt (level of Akt activity): 2
Akt; SkOv3
  Akt (level of Akt activity): 40
Akt; T24
  Akt (level of Akt activity): 90
Akt; T47D
  Akt (level of Akt activity): 85
Akt; ZR75
  Akt (level of Akt activity): 85
[6]
  response rate: about 10%
MDA-MB-361
  CATAG (gefitinib-sensitive): 1 (An IC50 <9 μM was considered gefitinib-sensitive (“CATAG” = 1))

## Cc1cc(C)c(/C=C2\C(=O)Nc3ccccc32)[nH]1 [semaxinib]
[7]
  complete responses: 1
  partial responses: 7
[1]
  most common / toxic side-effects: headache, nausea, vomiting, asthenia, pain at the infusion site, phlebitis, change in voice, and fever
[8]
  objective response rates: minimal objective response rates

## CS(=O)(=O)CCNCc1ccc(-c2ccc3ncnc(Nc4ccc(OCc5cccc(F)c5)c(Cl)c4)c3c2)o1 [lapatinib]
[1]
  most common / toxic side-effects: diarrhea and skin rash

## Clc1ccc(Nc2nnc(Cc3ccncc3)c3ccccc23)cc1 [vatalanib]
Renal cell carcinoma
  patients with minor responses: 15%
  patients with partial responses: 5%
